Experimental data taken from patent publication US7273880B2, “Selective NPY (Y5) antagonists” (H. Lunbeck A/S, priority 1999, dated 2007).
Where a name gives a salt, the structure may show the parent alone.

Molecular target: T1, human Y5 receptor (hNPY-5) (Homo sapiens, UniProt Q15761)
T1 construct: expressed in transfected cells; host or cells: mouse fibroblast LM(tk-) cells, e.g. L-hY5-7 (ATCC CRL-11995)
T1 sequence (Q15761 1-445): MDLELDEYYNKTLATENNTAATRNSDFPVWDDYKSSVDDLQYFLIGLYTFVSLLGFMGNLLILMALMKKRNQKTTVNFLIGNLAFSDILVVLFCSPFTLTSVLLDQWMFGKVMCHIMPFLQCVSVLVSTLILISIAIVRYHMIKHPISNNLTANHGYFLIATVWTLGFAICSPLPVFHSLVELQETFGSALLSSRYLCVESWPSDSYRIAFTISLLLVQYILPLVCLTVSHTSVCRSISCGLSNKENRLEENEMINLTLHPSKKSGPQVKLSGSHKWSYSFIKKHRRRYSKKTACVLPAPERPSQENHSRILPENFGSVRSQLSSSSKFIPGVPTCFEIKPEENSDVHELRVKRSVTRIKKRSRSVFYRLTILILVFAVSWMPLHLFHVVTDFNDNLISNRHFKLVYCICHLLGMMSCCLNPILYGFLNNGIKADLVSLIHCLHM
Assay: Radioligand binding to membranes, cloned human Y5 receptor
Conditions: cloned human NPY Y5 receptor, radioligand competition binding; Tables 1-3; read-out: Ki, nM hNPY-5
Protocol: Binding of the compounds of the present invention to human Y1, Y2, Y4, and Y5 receptors was evaluated using stably transfected 293 or LM(tk-) cells as described above. Stably transfected cell lines which may be used for binding assays include, for example, for the human Y1 receptor, 293-hY1-5 (deposited Jun. 4, 1996, under ATCC Accession No. CRL-12121), for the human Y2 receptor, 293-hY2-10 (deposited Jan. 27, 1994, under ATCC Accession No. CRL-11537), for the human Y4 receptor, L-hY4-3 (deposited Jan. 11, 1995, under ATCC Accession No. CRL-11779), and for human Y5 receptor, L-hY5-7 (deposited Nov. 15, 1995, under ATCC Accession No. CRL-11995). These cell lines were deposited with the American Type Culture Collection (ATCC), 10801 University Blvd., Manassas, Va. 20110-2209, U.S.A. under the provisions of the Budapest Treaty for the International Recognition of the Deposit of Microorganisms for the Purposes of Patent Procedure.
Membranes were harvested from COS-7 cells 48 hours after transient transfection. Adherent cells were washed twice in ice-cold phosphate buffered saline (138 mM NaCl, 8.1 mM Na2HPO4, 2.5 mM KCl, 1.2 mM KH2PO4, 0.9 mM CaCl2, 0.5 mM MgCl2, pH 7.4) and lysed by sonication in ice-cold sonication buffer (20 mM Tris-HCl, 5 mM EDTA, pH 7.7). Large particles and debris were cleared by low speed centrifugation (200×g, 5 min, 4° C.). Membranes were collected from the supernatant fraction by centrifugation (32,000×g, 18 min, 4° C.), washed with ice-cold hypotonic buffer, and collected again by centrifugation (32,000×g, 18 min, 4° C.). The final membrane pellet was resuspended by sonication into a small volume of ice-cold binding buffer (˜1 ml for every 5 plates: 10 mM NaCl, 20 mM HEPES, 0.22 mM KH2PO4, 1.26 mM CaCl2, 0.81 mM MgSO4, pH 7.4). Protein concentration was measured by the Bradford method (Bradford, 1976) using Bio-Rad Reagent, with bovine serum albumin as a standard. Membranes were held on ice for up to one hour and used fresh, or flash-frozen and stored in liquid nitrogen.
Membranes were prepared similarly from 293, LM(tk-), and NIH-3T3 cells. To prepare membranes from baculovirus infected cells, 2×10^7 Sf21 cells were grown in 150 mm tissue culture dishes and infected with a high-titer stock of hY5BB3. Cells were incubated for 2-4 days at 27° C., no CO2 before harvesting and membrane preparation as described above.
Membrane suspensions were diluted in binding buffer supplemented with 0.1% bovine serum albumin to yield an optimal membrane protein concentration so that ^125I-PYY (or alternative radioligand such as ^125I-NPY, ^125I-PYY3-36, or ^125I-[Leu^31Pro^34]PYY) bound by membranes in the assay was less than 10% of ^125I-PYY (or alternative radioligand) delivered to the sample (100,000 dpm/sample=0.08 nM for competition binding assays). ^125I-PYY (or alternative radioligand) and peptide competitors were also diluted to desired concentrations in supplemented binding buffer. Individual samples were then prepared in 96-well polypropylene microtiter plates by mixing 125I-PYY (25 μL) (or alternative radioligand), competing peptides or supplemented binding buffer (25 μL), and finally, membrane suspensions (200 μL). Samples were incubated in a 30° C. water bath with constant shaking for 120 min. Incubations were terminated by filtration over Whatman GF/C filters (pre-coated with 1% polyethyleneimine and air-dried before use), followed by washing with 5 mL of ice-cold binding buffer. Filter-trapped membranes were impregnated with MeltiLex solid scintillant (Wallac, Turku, Finland) and counted for ^125I in a Wallac Beta-Plate Reader. Alternatively, incubations were carried out in GF/C filter plates (pre-coated with 1% polyethyleneimine and air-dried before use), followed by vacuum filtration and three washes of 300 μL of ice-cold binding buffer. 50 μL of UltimaGold (Packard) scintillant were added and counted for ^125I in a Wallac MicroBeta Trilux. […]

Structure (SMILES)	Ki [nM]
COc1cccc2c1OCCc1sc(NC[C@H]3CC[C@H](NS(=O)(=O)N(C)C)CC3)nc1-2 [Example 66, trans-1-Aza-4,5-dihydro-7-methoxy-2-{4-dimethylamino-sulfonylamino}cyclohexylmethylamino-6-oxa-3-thia-benzo[e]azulene]	2
COCCN(C=O)[C@H]1CC[C@H](CNc2nc(-c3ccccc3)cs2)CC1 [Example 98, trans-N-(2-Methoxyethyl)-N-(4-[(4-phenyl-1,3-thiazol-2-yl)amino]methylcyclohexyl)formamide]	125
O=S(=O)(NCCCCCNc1nc2c(s1)CCCc1ccc(F)cc1-2)c1cccnc1 [Example 55, 1-Aza-9-fluoro-4,5-dihydro-2-(5-(3-pyridyl)sulfonyl-amino)pentylamino-3-thia-benzo[e]azulene]	3.4
CCC(=O)NC[C@H]1CC[C@H](Nc2nc3c(s2)CCCc2ccc(F)cc2-3)CC1 [Example 75, trans-1-Aza-4,5-dihydro-2-(4-ethylcarbonylamino-methyl)-cyclohexylamino-9-fluoro-3-thia-benzo[e]-azulene]	36
COCC(=O)NCc1ccc(Nc2nc3c(s2)CCCc2ccc(F)cc2-3)cc1 [Example 89, N1-{4-[(9-fluoro-5,6-dihydro-4H-benzo[6,7]cyclohepta-[d][1,3]thiazol-2-yl)amino]benzyl}-2-methoxyacetamide]	9.2
O=S(=O)(NCCCCNc1nc2c(s1)CCCc1ccc(F)cc1-2)c1cccc2ccccc12 [Example 8, 1-Aza-9-fluoro-4,5-dihydro-2-(4-(1-naphthyl)sulfonyl-amino)butylamino-3-thia-benzo[e]azulene]	94
CC(C)S(=O)(=O)NCCOCCNc1nc2c(s1)CCCc1ccc(F)cc1-2 [Example 69, 1-Aza-9-fluoro-4,5-dihydro-2-(2-(2-isopropyl-sulfonylamino)-ethoxy)ethylamino-3-thia-benzo[e]-azulene]	4.1
CN(C)S(=O)(=O)NCCCCNc1nc2c(s1)CCCc1ccc(F)cc1-2 [Example 6, 1-Aza-9-fluoro-4,5-dihydro-2-(4-(dimethyl-aminosulfonyl-amino)butyl)amino-3-thia-benzo[e]-azulene]	3.1
COCCOC(=O)NC[C@H]1CC[C@H](Nc2nc3c(s2)CCCc2ccc(F)cc2-3)CC1 [Example 77, trans-1-Aza-9-fluoro-4,5-dihydro-2-(4-(2-methoxy)-ethoxy-carbonylaminomethyl)cyclohexylamino-3-thia-benzo[e]azulene]	14.6
CN(C)S(=O)(=O)NC[C@H]1CC[C@H](CNc2nc3c(s2)CCSc2ccc(F)cc2-3)CC1 [Example 106]	2.6
CN(C)S(=O)(=O)NCCCCCNc1nc2c(s1)CCCc1ccc(F)cc1-2 [Example 2, 1-Aza-9-fluoro-4,5-dihydro-2-{5-(dimethyl-aminosulfonyl-amino)pentyl}amino-3-thia-benzo[e]azulene]	1.6
COCCN(C=O)[C@H]1CC[C@H](CNc2nc3c(s2)CCOc2ccccc2-3)CC1 [Example 86, N-{4-[(4,5-dihydrobenzo[2,3]oxepino[4,5-d][1,3]thiazol-2-ylamino)methyl]cyclohexyl}-N-(2-methoxyethyl)formamide]	68
CC(C)N(C=O)C[C@H]1CC[C@H](Nc2nc3c(s2)CCCc2ccc(F)cc2-3)CC1 [Example 83, trans-1-Aza-9-fluoro-4,5-dihydro-2-(4-(N-isopropyl-formamido)methyl)cyclohexylamino-3-thia-benzo[e]-azulene]	12
COc1ccc(S(=O)(=O)N[C@H]2CC[C@H](Nc3nc4c(s3)CCCc3ccc(F)cc3-4)CC2)cc1 [Example 36, trans-1-Aza-9-fluoro-4,5-dihydro-2-(4-(4-methoxy-phenyl)sulfonylamino)cyclohexylamino-3-thia-benzo[e]-azulene]	60
CC(C)S(=O)(=O)NCCCCCNc1nc2c(s1)CCCc1ccc(F)cc1-2 [Example 13, 1-Aza-9-fluoro-4,5-dihydro-2-(5-isopropyl-sulfonylamino)-pentylamino-3-thia-benzo[e]azulene]	132

More lines, now with the values ahead:

Ki [nM]	Structure (SMILES)
56	COc1ccccc1-c1csc(N[C@H]2CC[C@H](CN(C=O)C(C)C)CC2)n1 [Example 96, trans-2-(4-(N-Isopropyl)formamidomethyl)cyclohexyl-amino-4-(2-methoxy)phenylthiazole hydrogen chloride]
45	CC(C)N(C=O)[C@H]1CC[C@H](CNc2nc(-c3ccccc3)cs2)CC1 [Example 99, trans-N-Isopropyl-N-(4-[(4-phenyl-1,3-thiazol-2-yl)amino]methylcyclohexyl)formamide]
240	CCOC(=O)NC[C@H]1CC[C@H](Nc2nc(-c3cccc(OC)c3)cs2)CC1 [Example 94, trans-2-(4-Ethoxycarbonylaminomethyl)cyclohexylamino-4-(3-methoxy)phenylthiazole hydrogen chloride]
37	COc1cccc2c1OCCc1sc(N[C@H]3CC[C@H](CNS(C)(=O)=O)CC3)nc1-2 [Example 74, trans-1-Aza-4,5-dihydro-2-(4-methylsulfonylamino-methyl)-cyclohexylamino-7-methoxy-3-thia-benzo[e]-azulene]
11.6	COc1cccc2c1OCCc1sc(NC[C@H]3CC[C@H](NS(C)(=O)=O)CC3)nc1-2 [Example 65, trans-N2-(4-Methylsulfonylamino)cyclohexylmethyl-7-methoxy-4,5-dihydro-benzo[2,3]oxepino[4,5-d][1,3]-thiazol-2-amine hydrochloride]
6	COc1ccc2c(c1)CCCc1sc(N[C@H]3CC[C@H](CNS(=O)(=O)N4CCOCC4)CC3)nc1-2 [Example 78, trans-N2-(4-(1-Morpholinylsulfonylaminomethyl)-cyclohexyl-8-methoxy-5,6-dihydro-4H-benzo[6,7]-cyclohepta[d][1,3]thiazol-2-amine hydrochloride]
8.7	COc1ccc2c(c1)CCCc1sc(N[C@H]3CC[C@H](CNS(=O)(=O)C(C)C)CC3)nc1-2 [Example 73, trans-1-Aza-4,5-dihydro-2-(4-isopropylsulfonyl-aminomethyl)-cyclohexylamino-8-methoxy-3-thia-benzo[e]-azulene]
150	COc1cccc(-c2csc(N[C@H]3CC[C@H](CNS(C)(=O)=O)CC3)n2)c1 [Example 93, trans-4-(3-Methoxy)phenyl-2-(4-methylsulfonylamino-methyl)-cyclohexylaminothiazole]
335	COCCN(C=O)C[C@H]1CC[C@H](Nc2nc(-c3ccccc3OC)cs2)CC1 [Example 97]
